Experiments:
calf thymus CT-DNA = test: DNA titration by absorption spectra; type: binding; conditions: pH 7.2 buffer, ionic strength 0.1 M
Method: A sample of ZnPFPTMP from Part C was tested by various methods and techniques to determine how this compound may be utilized. In one test ZnPFPTMP was titrated into a DNA sample to determine ZnPFPTMP's affinity for binding to DNA. This test was conducted by measuring the absorption spectra of pH 7.2 buffer solutions (ionic strength=0.1 M) of ZnPFPTMP in the presence of increasing amounts of calf thymus CT-DNA.

Staphylococcus aureus = test: killing of bacteria in the absence of light, plated to determine viability; type: cell-based
Excerpt: Additionally, the ability of ZnPFPTMP to affect killing of bacteria in the absence of light was further tested against the Gram-positive pathogenic bacterium Staphylococcus aureus. This bacterium was chose to evidence the ability of the porphyrins of general formula (I) to treat/kill methicillin-resistant Staphylococcus aureus (MRSA) without exposing the scientists to MRSA directly. Moreover, it is believed that the mechanism used by the porphyrins of general formula (I) is unlikely to involve the methicillin resistance mechanism. S. aureus cells grown in LB medium were washed and re-suspended on 0.2% peptone and exposed to either 1.5 μM or 3.0 μM Zeke in sterile water. Cell suspensions were sampled every 30 minutes for 3 hours and plated to determine viability. […] At 1.5 μM Zeke's complete elimination of viable cells of S. aureus took only two hours.

[1] = tested on: Pseudomonas aeruginosa planktonic cells; test: killing of planktonic cells in the absence of light, viable plate counts; type: cell-based; conditions: 37° C.
Method: ZnPFPTMP was added to cell suspensions at the concentrations shown in FIG. 5 (0 to 100 μM) and incubated at 37° C. in the absence of light. […]

[2] = tested on: circular plasmid DNA (pUC18); test: photocleavage of plasmid DNA in the presence of oxygen, gel electrophoresis; type: biochemical; conditions: 50:1 base pair to complex ratio
Method: To appreciate the significance of the increased absorption of ZnPFPTMP in the PDT window, comparative photocleavage studies of plasmid DNA under normal conditions (i.e., in the presence of oxygen) were conducted for ZnPFPTMP and its free-base porphyrin. […] In FIG. 3, gel electrophoresis of circular plasmid DNA (pUC18) in the absence (lane 1) and presence (lanes 2-10) of unmetallated porphyrin (A) and ZnPFPTMP (B) at a 50:1 base pair to complex ratio are shown. Samples were irradiated with a 300 W mercury arc lamp equipped with a long pass filter, cutting off wavelengths below 550 nm, and were taken at 2 minute intervals.
ZnPFPTMP is very reactive at such low energy wavelengths of light.

[3] = tested on: Pseudomonas aeruginosa biofilm associated cells; test: effect on biofilms in the dark; type: cell-based
[4] = tested on: circular plasmid DNA (pUC18); test: photocleavage of plasmid DNA in the absence of oxygen, gel electrophoresis; type: biochemical; conditions: 10:1 base pair to complex ratio, wavelengths above 420 nm
Method: Referring now to FIG. 4, photocleavage studies based on a 10 to 1 base pairs to ZnPFPTMP was irradiated with a 420 nm filter and samples were taken at 10 minute intervals. In FIG. 3, gel electrophoresis of circular plasmid DNA (pUC18) in the absence (lane 1) and presence (lanes 2-10) of ZnPFPTMP at a 10:1 base pair to complex ratio is shown. Samples were irradiated with a 300 W mercury arc lamp equipped with a long pass filter, cutting off wavelengths below 420 nm in the absence of oxygen, and were taken at 10 minute intervals. Accordingly, ZnPFPTMP can be effective under hypoxic conditions.

Substance: meso-5,10,15-tris(N-methyl-4-pyridyl)-20-(pentafluorophenyl)porphyrinatozinc(II), tris-p-toluene sulfonate [ZnPFPTMP]
- binding constants to DNA (calf thymus CT-DNA): greater than 10^6
- time to complete elimination of viable cells (Staphylococcus aureus; 1.5 μM): two
- log reduction in viable cells (Staphylococcus aureus; 3.0 μM, after 30 min): 5.5 log
- viable cells remaining (Staphylococcus aureus; 3.0 μM, after 60 min): no viable cells remained
- killing at two hours ([1]; 2 hours): substantial killing
- MLC (minimum lethal concentration) ([1]; 7 hours, no survivors): 25 µM
- band intensity compared to free-base porphyrin ([2]; after 2 minutes versus free-base porphyrin after 20 minutes, above 550 nm): more intense bands
- photonicking of plasmid DNA ([2]; after two minutes, wavelengths above 550 nm, oxygen present): effective compete photonicking
- biofilm formation ([3]; added to cell suspensions incubated in the dark): Biofilms were prevented
- log reduction in preformed biofilms ([3]; preformed biofilms exposed in the dark (data not shown)): 2.7 log
- photonicking of DNA in the absence of oxygen [4]: effective at photonicking DNA

Reference: patent US9364537B2, “Transition metal porphyrin complexes and methods of treatment using same” (UNIVERSITY OF DAYTON, priority 2014, dated 2016)
